The assay deals with T1, USP28 (His-tagged USP28-FL-mammalian) (Homo sapiens, UniProt Q96RU2).
T1 construct: Expression of USP28 (1-1077)-TEV-6*His (pTT5 vector) was carried out in Expi293f cells; made in house; host or cells: Expi293F cells (pTT5 vector)
T1 sequence (Q96RU2 1-1077): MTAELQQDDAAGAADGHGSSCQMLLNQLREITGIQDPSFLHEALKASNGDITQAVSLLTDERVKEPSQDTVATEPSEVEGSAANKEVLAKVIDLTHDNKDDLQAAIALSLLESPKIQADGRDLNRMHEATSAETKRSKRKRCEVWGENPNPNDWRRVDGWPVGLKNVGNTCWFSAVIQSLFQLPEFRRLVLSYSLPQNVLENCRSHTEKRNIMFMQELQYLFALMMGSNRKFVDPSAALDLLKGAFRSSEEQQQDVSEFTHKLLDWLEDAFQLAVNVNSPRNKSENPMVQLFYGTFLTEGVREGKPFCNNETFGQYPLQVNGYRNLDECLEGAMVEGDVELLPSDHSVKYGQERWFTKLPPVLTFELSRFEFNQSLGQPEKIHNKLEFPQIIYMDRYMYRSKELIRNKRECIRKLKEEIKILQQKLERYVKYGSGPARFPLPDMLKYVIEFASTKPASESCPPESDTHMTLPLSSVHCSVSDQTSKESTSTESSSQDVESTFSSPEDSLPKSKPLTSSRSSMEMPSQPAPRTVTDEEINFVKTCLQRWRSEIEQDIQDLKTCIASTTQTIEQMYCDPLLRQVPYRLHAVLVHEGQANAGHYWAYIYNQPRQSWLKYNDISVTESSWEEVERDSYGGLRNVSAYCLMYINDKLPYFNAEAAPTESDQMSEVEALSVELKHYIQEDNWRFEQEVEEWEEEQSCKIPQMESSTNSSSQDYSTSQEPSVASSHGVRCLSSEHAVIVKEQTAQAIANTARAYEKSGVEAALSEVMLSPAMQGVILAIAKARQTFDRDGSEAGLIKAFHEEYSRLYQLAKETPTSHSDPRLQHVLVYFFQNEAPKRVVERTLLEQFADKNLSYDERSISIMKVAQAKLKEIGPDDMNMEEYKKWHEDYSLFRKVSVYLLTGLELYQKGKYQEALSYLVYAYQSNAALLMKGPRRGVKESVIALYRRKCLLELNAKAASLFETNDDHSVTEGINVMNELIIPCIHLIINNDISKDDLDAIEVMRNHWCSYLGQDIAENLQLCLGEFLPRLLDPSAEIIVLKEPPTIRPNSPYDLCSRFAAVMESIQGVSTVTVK
Nature of the assay: Ubiquitin-Rhodamine 110 Assay for USP28 Activity, Example A-1(a). Type of assay: biochemical. Here is the method: Example A-1(a): Biochemical Assay: Ubiquitin-Rhodamine 110 Assay for USP28 Activity
The assay was performed in a final volume of 9 μL in assay buffer containing 20 mM Tris-HCl (pH 8.0, (1M Tris-HCl, pH 8.0 solution; Corning 46-031-CM)), 3 mM BME (2-Mercaptoethanol; Sigma 63689-25ML-F), 0.03% BGG (0.22 μM filtered, Sigma, G7516-25G), and 0.01% Triton X-100 (Sigma, T9284-10L). Nanoliter quantities of 10-point, 3-fold serial dilution in DMSO was pre-dispensed into 1536 assay plates (Corning, #3724BC) for a final test concentration of 25 μM to 1.3 nM, top to lowest dose, respectively. Enzyme USP28, construct His-tagged USP28-FL-mammalian, (protein expression and purification procedure described below). Concentration and incubation times were optimized for the maximal signal-to-background while maintaining initial velocity conditions at a fixed substrate concentration. The final concentration of the enzyme in the assay was […]. Final substrate (Ub-Rh110; Ubiquitin-Rhodamine 110, UbiQ-126) concentration was 25 nM with [Ub-Rh110]<<Km. 3 μL of 2× enzyme was added to assay plates (pre-stamped with compound) preincubated with […] for 30 minutes and then 3 μL of 2× Ub-Rh110 was added to assay plates. Plates were incubated for 45 minutes at room temperature before addition of 3 μL of stop solution (final concentration of 10 mM citric acid (Sigma, 251275-500G)). Fluorescence was read on the Envision (Excitation at 485 nm and Emission at 535 nm; Perkin Elmer) or on the PheraSTAR (Excitation at 485 nm and Emission at 535 nm; BMG Labtech).
Procedure for the Protein expression and purification for construct His-tagged USP28-FL-mammalian
Expression of USP28 (1-1077)-TEV-6*His (pTT5 vector) was carried out in Expi293f cells (sequence derived from uniprot ID: Q96RU2-1). Cells were re-suspended in lysis buffer B 50 mM Bicine, pH 8.0, 20 mM NaCl, 5% glycerol, 0.1% CHAPS, 5 mM β-ME, 1 mM PMSF, 1 ug/ml Leupeptin, 1 ug/ml Pepstatin) and lysed by sonication. Insoluble material was removed by centrifugation and the supernatant was loaded onto a Ni-NTA column (GE Healthcare) equilibrated with Ni Buffer A (50 mM Bicine, pH 8.0, 20 mM NaCl, 5% glycerol, 0.1% CHAPS, 5 mM R-ME.) and washed with Ni Buffer A+20 mM imidazole until A280 reached baseline. The protein was eluted with Ni Buffer B (50 mM Bicine, pH 8.0, 20 mM NaCl, 5% glycerol, 0.1% CHAPS, 5 mM β-ME, 300 mM imidazole.). The protein was further purified using a Superdex™ 200 10/300 GL column (GE Healthcare) equilibrated with 50 mM Bicine, pH 8.0, 20 mM NaCl, 5% glycerol, 0.1% CHAPS, 5 mM β-ME. The protein was concentrated to 2.5 mg ml-1, flash-frozen in liquid N2 and stored at −80° C.
For assay formats Example A-1(a), A-1(b), and A-2, data were reported as percent inhibition compared with control wells based on the following equation: % inh=1−((FLU−AveLow)/(AveHigh−AveLow)) where FLU=measured Fluorescence, AveLow=average Fluorescence of no enzyme control (n=16), and AveHighh=average Fluorescence of DMSO control (n=16). IC50 values were determined by curve fitting of the standard 4 parameter logistic fitting algorithm included in the Activity Base software package: IDBS XE Designer Model 205. Data is fitted using the Levenburg Marquardt algorithm.

[1] abbreviates: biochemical IC50 range, Ubiquitin-Rhodamine 110 assay, read-out: USP28 A-1(a).
Setting [2] is: Ubiquitin-Rhodamine 110 biochemical assay, read-out: USP28 A-1(a) IC50 range.

pIC50: −log10 of the molar value. Read-outs that look alike come from different tables or passages of the source.

For `CCNC1CN(c2ccc3c(c2)OCC(NC(=O)c2sc4nc(C)ccc4c2N)C3)CC1COC` [Example 668, 3-amino-N-[(3R)-7-[(3R,4S)-3-(ethylamino)-4-(mcthoxymcthyl)pyrrolidin-1-yl]-3,4-dihydro-2H-1-benzopyran-3-yl]-6-methylthicno[2,3-b]pyridinc-2-carboxamide], the pIC50 under setting [1] was 7.30 to 9.00.
As for `CN[C@H]1CN(c2ccc3c(n2)CC[C@H](NC(=O)c2sc4nc(C)cnc4c2N)C3)C[C@H]1OC` [Example 496, 7-amino-N-[(6S)-2-[(3R,4S)-3-methoxy-4-(methylamino)pyrrolidin-1-yl]-5,6,7,8-tetrahydroquinolin-6-yl]-3-methylthieno[2,3-b]pyrazine-6-carboxamide], the pIC50 under setting [2] is 5.70 to 6.70.
Regarding `CO[C@]12CCN[C@H]1CN(c1ccc3c(c1)OC[C@H](NC(=O)c1sc4nc(C)ccc4c1N)C3)C2` [Example 666, N-[(3R)-7-[(3aS,6aS)-3a-methoxyoctahydropyrrolo[2,3-c]pyrrol-5-yl}-3,4-dihydro-2H-1-benzopyran-3-yl]-3-amino-6-methylthicno[2,3-b]pyridine-2-carboxamide], under setting [1], the pIC50 was 7.30 to 9.00.
As for `CN[C@H]1CN(c2ccc3c(n2)CC[C@H](NC(=O)c2sc4nc(C)ccc4c2N)C3)C[C@H]1COC` [Example 488, 3-amino-N-[(6S)-2-[(3R,4R)-3-(methoxymethyl)-4-(methylamino)pyrrolidin-1-yl]-5,6,7,8-tetrahydroquinolin-6-yl]-6-methylthieno[2,3-b]pyridine-2-carboxamide], under setting [2], the pIC50 was 6.70 to 7.30.
The same measure, in the same setting: to `Cc1cnc2c(N)c(C(=O)N[C@H]3CCc4nc(N5C[C@H](N)C6(C5)OCCO6)ccc4C3)sc2n1` [Example 498, 7-amino-N-[(6S)-2-[(9S)-9-amino-1,4-dioxa-7-azaspiro[4.4]nonan-7-yl]-5,6,7,8-tetrahydroquinolin-6-yl]-3-methylthieno[2,3-b]pyrazine-6-carboxamide] belongs 5.70 to 6.70.
On to `Cc1ccc2c(N)c(C(=O)N[C@H]3COc4cc(N5C[C@H](N)C6(C5)OCCO6)ccc4C3)sc2n1` [Example 681, 3-amino-N-[(3R)-7-[(9S)-9-amino-1,4-dioxa-7-azaspiro[4.4]nonan-7-yl]-3,4-dihydro-2H-1-benzopyran-3-yl]-6-methylthieno[2,3-b]pyridine-2-carboxamide], for which, under setting [1], the pIC50 was 7.30 to 9.00.
Take `Cc1ccc2c(N)c(C(=O)NC3COc4cc(N5CC(N)C(COC(F)(F)F)C5)ccc4C3)sc2n1` [Example 672, 3-amino-N-[(3R)-7-[(3R,4R)-3-amino-4-[(trifluoromethoxy)methyl]pyrrolidin-1-yl]-3,4-dihydro-2H-1-benzopyran-3-yl]-6-methylthicno[2,3-b]pyridine-2-carboxamide]: under setting [1], the pIC50 was 6.70 to 7.30.
In the case of `CO[C@@H]1CCCN(c2cc(F)c3c(c2)OC[C@H](NC(=O)c2sc4nc(C)ccc4c2N)C3)C[C@H]1N` [Example 689, 3-amino-N-[(3R)-7-[(3R,4R)-3-amino-4-methoxyazepan-1-yl]-5-fluoro-3,4-dihydro-2H-1-benzopyran-3-yl]-6-methylthieno[2,3-b]pyridine-2-carboxamide], the pIC50 under setting [1] was 7.30 to 9.00.
Same read-out and setting: the value for `Cc1ccc2c(N)c(C(=O)N[C@H]3COc4cc(OC[C@H]5CNCC5(F)F)ccc4C3)sc2n1` [Example 686, 3-amino-N-[(3R)-7-{[(3R)-4,4-difluoropyrrolidin-3-yl]methoxy}-3,4-dihydro-2H-1-benzopyran-3-yl]-6-methylthieno[2,3-b]pyridine-2-carboxamide] was 7.30 to 9.00; that for `CO[C@@]12CCN[C@@H]1CN(c1ccc3c(c1)OC[C@H](NC(=O)c1sc4nc(C)ccc4c1N)C3)C2` [Example 667, N-[(3R)-7-[(3aR,6aR)-3a-methoxyoctahydropyrrolo[2,3-c]pyrrol-5-yl]-3,4-dihydro-2H-1-benzopyran-3-yl]-3-amino-6-methylthieno[2,3-b]pyridine-2-carboxamide] was 7.30 to 9.00.
For the compound “3-amino-N-[(6S)-2-[(3S,4R)-3-(methoxymethyl)-4-[(^2H3)methylamino]pyrrolidin-1-yl]-5,6,7,8-tetrahydroquinolin-6-yl]-6-methylthieno[2,3-b]pyridine-2-carboxamide [Example 486]”, the pIC50 under setting [2] was 6.70 to 7.30.
As to `Cc1ccc2c(N)c(C(=O)N[C@H]3COc4cc(N5C[C@@H](N)C6(C5)OCCO6)ccc4C3)sc2n1` [Example 682, 3-amino-N-[(3R)-7-[(9R)-9-amino-1,4-dioxa-7-azaspiro[4.4]nonan-7-yl]-3,4-dihydro-2H-1-benzopyran-3-yl]-6-methylthieno[2,3-b]pyridine-2-carboxamide], the pIC50 under setting [1] is 6.70 to 7.30.
Turning to `Cc1cnc2c(N)c(C(=O)N[C@H]3CCc4nc(N5C[C@@H](N)C6(C5)OCCO6)ccc4C3)sc2n1` [Example 499, 7-amino-N-[(6S)-2-[(9R)-9-amino-1,4-dioxa-7-azaspiro[4.4]nonan-7-yl]-5,6,7,8-tetrahydroquinolin-6-yl]-3-methylthieno[2,3-b]pyrazine-6-carboxamide], the pIC50 under setting [2] was 5.70 to 6.70.
Regarding `Cc1ccc2c(N)c(C(=O)N[C@H]3COc4cc(N5CC[C@@]6(C5)OCC[C@H]6N)ccc4C3)sc2n1` [Example 409, 3-amino-N-[(3R)-7-[(4R,5S)-4-amino-1-oxa-7-azaspiro[4.4]nonan-7-yl]-3,4-dihydro-2H-1-benzopyran-3-yl]-6-methylthieno[2,3-b]pyridine-2-carboxamide], the pIC50 (Ubiquitin-Rhodamine 110 assay, read-out: USP28 A-1(a) IC50 range) was 7.30 to 9.00.
For the compound `CCO[C@H]1CN(c2ccc3c(n2)CC[C@H](NC(=O)c2sc4nc(C)cnc4c2N)C3)C[C@@H]1N` [Example 520, 7-amino-N-[(6S)-2-[(3S,4S)-3-amino-4-ethoxypyrrolidin-1-yl]-5,6,7,8-tetrahydroquinolin-6-yl]-3-methylthieno[2,3-b]pyrazine-6-carboxamide], under setting [2], the pIC50 is 5.70 to 6.70.

The values above are taken from patent US12162888B2, “Carboxamides as ubiquitin-specific protease inhibitors” (Valo Early Discovery, Inc., priority 2018, dated 2024).
